Measured values published in US20220016102A1, “ER PROTEIN REGULATORS AND USE THEREOF” (ShanghaiTech University, priority 2018, published 2022).

How the values were obtained:
[1] = target: T1, ER protein (Homo sapiens, UniProt P03372); test: Western blotting analysis of ER protein degradation in T47D cell line; format: cell-based; parameters: western blotting detection of the level of intracellular ER protein; endogenous in cells; host or cells: T47D; details: degradation of ER protein, T47D cells, drug treatment for 16 hours, Western blot gray values vs DMSO control; read-out: DC50 (nM)/T47Dcell line
T1 sequence (P03372 1-595): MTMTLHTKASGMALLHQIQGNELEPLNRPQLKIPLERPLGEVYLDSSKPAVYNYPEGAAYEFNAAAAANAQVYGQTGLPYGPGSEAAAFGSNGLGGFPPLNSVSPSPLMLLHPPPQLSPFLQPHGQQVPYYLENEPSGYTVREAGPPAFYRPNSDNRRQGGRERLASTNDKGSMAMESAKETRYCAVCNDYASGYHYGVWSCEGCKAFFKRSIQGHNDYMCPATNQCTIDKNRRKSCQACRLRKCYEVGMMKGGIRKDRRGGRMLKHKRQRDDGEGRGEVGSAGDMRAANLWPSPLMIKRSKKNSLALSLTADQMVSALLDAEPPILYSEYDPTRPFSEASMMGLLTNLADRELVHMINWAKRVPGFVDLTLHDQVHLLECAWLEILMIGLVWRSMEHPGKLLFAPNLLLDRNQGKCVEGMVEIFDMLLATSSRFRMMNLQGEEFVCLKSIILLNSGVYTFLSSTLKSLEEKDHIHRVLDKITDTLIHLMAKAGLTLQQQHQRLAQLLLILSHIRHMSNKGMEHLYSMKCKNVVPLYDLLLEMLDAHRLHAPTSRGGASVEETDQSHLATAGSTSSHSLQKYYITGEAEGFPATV
Procedure: T47D cells were cultured in an incubator with 5% CO2 at 37° C. Complete medium was RPMI1640 supplemented with 10% Foetal bovine serum (FBS), 100 U/ml Penicillin and Streptomycin, and 0.77 μg/mL recombinant human insulin. Western blotting analysis of T47D cell line: • Cells were plated in a 24-well plate at a cell seeding […] of 1.5×10^5 cells/mL, with 1 ml cell suspensions per well. • After 24 h the cells were adherent, and the cells in each well were treated with 1 μL a certain concentration of ER protein regulators of the present disclosure. […] Afterwards, the membranes were block by using the Blocking Buffer, and the antibody incubation and development were performed. (The above procedures were all based on the antibody product manual of the manufacturer) DC50 value (the drug concentration required for degrading proteins by 50%, abbreviated as DC50) reads method: comparing the gray values of the Western blotting bands for the drug treatment with the gray values of the Western blotting band for the DMSO control, and reading the drug concentration range corresponding to the gray value of the Western blotting bands for the drug treatment which is equal to half of the gray value of the Western blotting band for the DMSO control. DC50 value could also be calculated as follows: using software ImageJ to quantify the gray values of the Western blotting bands for the drug treatment, fitting the relationship curve between drug concentrations and gray values, and from the fitted curve, calculating the drug concentration corresponding to half of the gray value of the Western blotting band for the DMSO control.

[2] = target: T1, ER protein; test: Western blotting analysis of ER protein degradation in MCF-7 cell line; format: cell-based; parameters: western blotting detection of the level of intracellular ER protein; endogenous in cells; details: MCF-7 cells, Western blot gray values vs DMSO control
Procedure: MCF-7 were cultured in ncubator with 5% CO2 at 37° C. Complete medium was EMEM supplemented with 10% FBS, 100 U/mL Penicillin and Streptomycin, and 0.77 μg/mL recombinant human insulin. […]
DC50 value (the drug concentration required for degrading proteins by 50%, abbreviated as DC50) reads method: comparing the gray values of the Western blotting bands for the drug treatment with the gray values of the Western blotting band for the DMSO control, and reading the drug concentration range corresponding to the gray value of the Western blotting bands for the drug treatment which is equal to half of the gray value of the Western blotting band for the DMSO control.
DC50 value could also be calculated as follows: using software ImageJ to quantify the gray values of the Western blotting bands for the drug treatment, fitting the relationship curve between drug concentrations and gray values, and from the fitted curve, calculating the drug concentration corresponding to half of the gray value of the Western blotting band for the DMSO control.

Structure (SMILES) | DC50 [1] | DC50 [2]
Cc1ncsc1-c1ccc(CNC(=O)[C@@H]2C[C@@H](O)CN2C(=O)[C@@H](NC(=O)CCCCCC(=O)NCCOc2ccc(C(=C(CCCl)c3ccccc3)c3ccc(O)cc3)cc2)C(C)(C)C)cc1 [SIAIS208033, N1-(2-(4-(4-chloro-1-(4-hydroxyphenyl)-2-phenylbut-1-en-1-yl)phenoxy)ethyl)-N7-((S)-1-((2S,4R)-4-hydroxy-2-((4-(4-methylthiazol-5-yl)benzyl)carbamoyl)pyrrolidin-1-yl)-3,3-dimethyl-1-oxobutan-2-yl)heptanediamide] | < 10 nM | < 10 nM
Cc1ncsc1-c1ccc(CNC(=O)[C@@H]2C[C@@H](O)CN2C(=O)[C@@H](NC(=O)CCCCCCC(=O)NCCOc2ccc(C(=C(CCCl)c3ccccc3)c3ccc(O)cc3)cc2)C(C)(C)C)cc1 [SIAIS208034, N1-(2-(4-(4-chloro-1-(4-hydroxyphenyl)-2-phenylbut-1-en-1-yl)phenoxy)ethyl)-N8-((S)-1-((2S,4R)-4-hydroxy-2-((4-(4-methylthiazol-5-yl)benzyl)carbamoyl)pyrrolidin-1-yl)-3,3-dimethyl-1-oxobutan-2-yl)octanediamide] | < 10 nM | < 10 nM
Cc1ncsc1-c1ccc(CNC(=O)[C@@H]2C[C@@H](O)CN2C(=O)[C@@H](NC(=O)CCCCCCCCC(=O)NCCOc2ccc(/C(=C(/CCCl)c3ccccc3)c3ccc(O)cc3)cc2)C(C)(C)C)cc1 [SIAIS208036, N1-(2-(4-((Z)-4-chloro-1-(4-hydroxyphenyl)-2-phenylbut-1-en-1-yl)phenoxy)ethyl)-N10-((S)-1-((2S,4R)-4-hydroxy-2-((4-(4-methylthiazol-5-yl)benzyl)carbamoyl)pyrrolidin-1-yl)-3,3-dimethyl-1-oxobutan-2-yl)decanediamide] | < 10 nM | < 10 nM
Cc1ncsc1-c1ccc(CNC(=O)[C@@H]2C[C@@H](O)CN2C(=O)[C@@H](NC(=O)CCCCCCCCCC(=O)NCCOc2ccc(C(=C(CCCl)c3ccccc3)c3ccc(O)cc3)cc2)C(C)(C)C)cc1 [SIAIS208037, N1-(2-(4-(4-chloro-1-(4-hydroxyphenyl)-2-phenylbut-1-en-1-yl)phenoxy)ethyl)-N11-((S)-1-((2S,4R)-4-hydroxy-2-((4-(4-methylthiazol-5-yl)benzyl)carbamoyl)pyrrolidin-1-yl)-3,3-dimethyl-1-oxobutan-2-yl)undecanediamide] | < 10 nM | < 10 nM
Cc1ncsc1-c1ccc(CNC(=O)[C@@H]2C[C@@H](O)CN2C(=O)[C@@H](NC(=O)CCCCCCC(=O)N(C)CCOc2ccc(/C(=C(/CCCl)c3ccccc3)c3ccccc3)cc2)C(C)(C)C)cc1 [SIAIS180033, N1-(2-(4-((Z)-4-chloro-1,2-diphenylbut-1-en-1-yl)phenoxy)ethyl)-N8-((S)-1-((2S,4R)-4-hydroxy-2-((4-(4-methylthiazol-5-yl)benzyl)carbamoyl)pyrrolidin-1-yl)-3,3-dimethyl-1-oxobutan-2-yl)-N1-methyloctanediamide] | < 50 nM | 
Cc1ncsc1-c1ccc(CNC(=O)[C@@H]2C[C@@H](O)CN2C(=O)[C@@H](NC(=O)CCOCCOCCOCCC(=O)N(C)CCOc2ccc(/C(=C(/CCCl)c3ccccc3)c3ccccc3)cc2)C(C)(C)C)cc1 [SIAIS180024, (2S,4R)-1-((S)-2-(tert-butyl)-19-(4-((Z)-4-chloro-1,2-diphenylbut-1-en-1-yl)phenoxy)-17-methyl-4,16-dioxo-7,10,13-trioxa-3,17-diazanonadecanoyl)-4-hydroxy-N-(4-(4-methylthiazol-5-yl)benzyl)pyrrolidine-2-carboxamide] | < 50 nM | 
Cc1ncsc1-c1ccc(CNC(=O)[C@@H]2C[C@@H](O)CN2C(=O)[C@@H](NC(=O)CCCCCCCCC(=O)N(C)CCOc2ccc(/C(=C(/CCCl)c3ccccc3)c3ccccc3)cc2)C(C)(C)C)cc1 [SIAIS180036, N1-(2-(4-((Z)-4-chloro-1,2-diphenylbut-1-en-1-yl)phenoxy)ethyl)-N10-((S)-1-((2S,4R)-4-hydroxy-2-((4-(4-methylthiazol-5-yl)benzyl)carbamoyl)pyrrolidin-1-yl)-3,3-dimethyl-1-oxobutan-2-yl)-N1-methyldecanediamide] | < 200 nM | 

The next lines start with the values.

DC50 [1] | DC50 [2] | Structure (SMILES)
< 50 nM | < 100 nM | Cc1ncsc1-c1ccc(CNC(=O)[C@@H]2C[C@@H](O)CN2C(=O)[C@@H](NC(=O)CCCCCCCCCCCCCCC(=O)NCCOc2ccc(C(=C(CCCl)c3ccccc3)c3ccc(O)cc3)cc2)C(C)(C)C)cc1 [SIAIS208039, N1-(2-(4-(4-chloro-1-(4-hydroxyphenyl)-2-phenylbut-1-en-1-yl)phenoxy)ethyl)-N16-((S)-1-((2S,4R)-4-hydroxy-2-((4-(4-methylthiazol-5-yl)benzyl)carbamoyl)pyrrolidin-1-yl)-3,3-dimethyl-1-oxobutan-2-yl)hexadecanediamide]
< 50 nM | < 10 nM | Cc1ncsc1-c1ccc(CNC(=O)[C@@H]2C[C@@H](O)CN2C(=O)[C@@H](NC(=O)CCCCCCCCCCCCC(=O)NCCOc2ccc(C(=C(CCCl)c3ccccc3)c3ccc(O)cc3)cc2)C(C)(C)C)cc1 [SIAIS208038, N1-(2-(4-(4-chloro-1-(4-hydroxyphenyl)-2-phenylbut-1-en-1-yl)phenoxy)ethyl)-N14-((S)-1-((2S,4R)-4-hydroxy-2-((4-(4-methylthiazol-5-yl)benzyl)carbamoyl)pyrrolidin-1-yl)-3,3-dimethyl-1-oxobutan-2-yl)tetradecanediamide]
< 10 nM | 10 nM | Cc1ncsc1-c1ccc(CNC(=O)[C@@H]2C[C@@H](O)CN2C(=O)[C@@H](NC(=O)COCCOCC(=O)NCCOc2ccc(C(=C(CCCl)c3ccccc3)c3ccc(O)cc3)cc2)C(C)(C)C)cc1 [SIAIS208041, (2S,4R)-1-((S)-2-(tert-butyl)-14-(4-(4-chloro-1-(4-hydroxyphenyl)-2-phenylbut-1-en-1-yl)phenoxy)-4,11-dioxo-6,9-dioxa-3,12-diazatetradecanoyl)-4-hydroxy-N-(4-(4-methylthiazol-5-yl)benzyl)pyrrolidine-2-carboxamide]
< 50 nM |  | Cc1ncsc1-c1ccc(CNC(=O)[C@@H]2C[C@@H](O)CN2C(=O)[C@@H](NC(=O)CCCCCCCC(=O)N2CCN(CCOc3ccc(C(=C(CCCl)c4ccccc4)c4ccc(O)cc4)cc3)CC2)C(C)(C)C)cc1 [SIAIS251046, (2S,4R)-1-((S)-2-(9-(4-(2-(4-(4-chloro-1-(4-hydroxyphenyl)-2-phenylbut-1-en-1-yl)phenoxy)ethyl)piperazin-1-yl)-9-oxononanamido)-3,3-dimethylbutanoyl)-4-hydroxy-N-(4-(4-methylthiazol-5-yl)benzyl)pyrrolidine-2-carboxamide]
< 50 nM |  | CCC(=C(c1ccc(O)cc1)c1ccc(OCCNC(=O)CCOCCOCCOCCC(=O)N[C@H](C(=O)N2C[C@H](O)C[C@H]2C(=O)NCc2ccc(-c3scnc3C)cc2)C(C)(C)C)cc1)c1ccc(O)cc1 [SIAIS208174, (2S,4R)-1-((S)-19-(4-(1,2-bis(4-hydroxyphenyl)but-1-en-1-yl)phenoxy)-2-(tert-butyl)-4,16-dioxo-7,10,13-trioxa-3,17-diazanonadecanoyl)-4-hydroxy-N-(4-(4-methylthiazol-5-yl)benzyl)pyrrolidine-2-carboxamide]
